Reference: paper PMC12068008 (International Journal of Molecular Sciences, 2024)

How the values were obtained:
[1] = molecular target: Na^+, K^+-ATPase; assay: Na+,K+-ATPase assay (orthophosphate release); assay type: biochemical, porcine
Method: Na^+, K^+-ATPase activity was assessed using a modified version of the method by Seals et al., based on measuring the change in orthophosphate concentration released during ATP hydrolysis. The incubation mixture was prepared at 50 mM TRIS-HCl (pH 7.4), containing 5 mM MgCl2, 100 mM NaCl, 20 mM KCl, 25 μL of 5mg/mL commercial enzyme solution, and 20 μL of an inhibitor solution at a certain concentration. After preincubating the mixture for 10 min at 37 °C, the reaction was initiated by adding 20 μL of 20 mM ATP. The reaction proceeded for 10 min at 37 °C before being terminated by adding 22 μL of 3 M cold perchloric acid, with the tube then placed on ice. In the blank sample, the incubation mixture contained only TRIS buffer (pH 7.4) without MgCl2, NaCl, or KCl. The reaction volume was adjusted to a final volume of 200 μL, after which 4.5 mL of water was added. Released orthophosphate was quantified using a colorimetric reaction with 200 μL of 0.2 M ammonium molybdate in 30% sulfuric acid and one drop of 2.5% SnCl2 in glycerol. Total ATPase activity was determined by measuring the absorbance of solution at 690 nm. Enzyme activity was expressed as relative enzyme activity (REA), defined as the percentage of Na^+, K^+-ATPase activity remaining in comparison to samples without inhibitor (control activity).

[2] = system: MDA-MB-231 cells; assay: SRB assay, MDA-MB-231 cells; assay type: cell-based; conditions: for IC50: Homo sapiens, MDA-MB-231, 72 h after treatment, SRB, read-out: IC50 MDA-231
Method: All cell lines were cultured in Dulbecco’s Modified Eagle’s Medium (DMEM) with 4500 mg/L glucose and L-glutamine (Capricorn Scientific, Ebsdorfergrund, Germany), supplemented with 10% foetal bovine serum (PAN-Biotech, Aidenbach, Germany), 10,000 U/mL penicillin, and 10 mg/mL streptomycin solution (Capricorn Scientific) under standard conditions at 37 °C in a humidified 5% CO2 atmosphere (ESCO, Lifesciences Group, Singapore).
Cells were seeded on a 96-well plate (Thermo Fisher Scientific, Waltham, MA, USA) at 2 × 10^3 cells per well in DMEM medium. For the analysis of the concentration- and time-dependent effect of the analysed compounds, cell monolayers were treated 24 h after seeding with concentrations 1 × 10^−6, 1 × 10^−5, and 1 × 10^−4 M for 24, 48, or 72 h. Cell viability was detected using sulforhodamine B (SRB) assay, based on the staining of cellular proteins. The assay was performed according to the procedure described by Skehan et al.. The cells were fixed with 10% trichloroacetic acid (TCA, CARLO ERBA Reagents GmbH, Emmendingen, Germany) for 1 h at 4 °C, washed with water, and stained for 15 min with 0.4% SRB (Sigma-Aldrich Chemie GmbH, Steinheim, Germany) in 1% acetic acid. The unbound SRB dye was rinsed with 1% acetic acid, while the protein-bound dye was extracted with a 10 mM Tris base (Sigma-Aldrich). […] The results were expressed as a percentage of the control, where the cell growth of the control is set to 100%. […] The selectivity index (SI) was determined according to the following formula:(2) SI=IC50 for fibroblast cell line/IC50 for tumour cell line
The assay was performed two times in 4 replicates for every experimental group. The statistical significance of differences between treated and untreated cells was estimated by the independent Student’s t-test, with the level of significance set at p < 0.05.

[3] = Metal-chelating assay, binding stoichiometry (molar ratio method), Fe2+; assay type: physicochemical; conditions: ethanol, 30 min, compound 5 × 10^−5 M
Method: Binding stoichiometry was determined using the molar ratio method, with increasing concentrations of metal ions (from 0 to 1.5 × 10^−4 M) (Figures S1 and S2). Absorption spectra were collected 30 min after mixing. The change in absorption at the wavelength of maximum absorbance for the formed complex was plotted against the metal ion (M^2+ = Cu^2+, Zn^2+, and Fe^2+) to compound ratio (cM^2+/ccompound) and is presented in Figure 3. This graph allows the determination of the binding ratio between the newly synthesized compounds and metal ions. […] In contrast, the results for Fe^2+ indicate that only one Fe^2+ ion can bind to both compounds.
The metal-chelating ability of synthesized compounds in ethanol was assessed using UV/Vis spectrophotometer (Lambda 35, Perkin Elmer) recording spectra over a wavelength range of 230–600 nm in a 1 cm quartz cell. The mixture of compound at 5 × 10^−5 M of final concentration and metal ions at 1 × 10^−4 M of final concentration was incubated for 30 min at room temperature. The tested temperature was 25 °C. […]
The binding stoichiometry was assessed by adding increasing concentrations of metal ions (0–1.5 × 10^−4 M) to a fixed concentration of compound (5 × 10^−5 M) and incubating the mixture for 30 min at room temperature. The spectra were then measured as described above, and the ligand-to-metal chelation ratio in the complex was calculated.

| Structure (SMILES) | IC50 ([1]; 37 °C) [µM] | Percentage Inhibition Na^+, K^+-ATPase ([1]; at 1 × 10^−4 M, 37 °C) [%] | fold decrease in IC50 toward Na^+, K^+-ATPase compared to bare quercetin ([1]; versus quercetin) [fold] | IC50 [2] [µM] | binding stoichiometry Fe^2+ (ions bound) [3] | Viability of MDA-231 cells ([2]; 72 h) |
| --- | --- | --- | --- | --- | --- | --- |
| COc1cc2c(cc1OC)CN(Cc1c(O)cc(O)c3c(=O)c(O)c(-c4ccc(O)c(O)c4)oc13)CC2 [Compound 2b] | 0.97 | 100 | 50 | 106 ± 5 | one | – |
| O=c1c(O)c(-c2ccc(O)c(O)c2)oc2c(CN3CCc4ccccc4C3)c(O)cc(O)c12 [Compound 2a] | – | – | – | 146 ± 7 | one | recovered to the control level or even increased |
